Measured values taken from ChEMBL document CHEMBL5465560, “Selectivity Literature for EUbOPEN Chemogenomic Library” (2024).

What was measured:
[1] = target: Mitogen-activated protein kinase 3 (Homo sapiens, UniProt P27361); experiment: Selectivity interaction (KinomeScan (DiscoverX)) EUB0000595a MAPK3; settings: at 10 µM
[2] = target: T1, Calcium/calmodulin-dependent protein kinase type IV (Homo sapiens) (UniProt Q16566); settings: at 10 µM
T1 sequence (whole entry): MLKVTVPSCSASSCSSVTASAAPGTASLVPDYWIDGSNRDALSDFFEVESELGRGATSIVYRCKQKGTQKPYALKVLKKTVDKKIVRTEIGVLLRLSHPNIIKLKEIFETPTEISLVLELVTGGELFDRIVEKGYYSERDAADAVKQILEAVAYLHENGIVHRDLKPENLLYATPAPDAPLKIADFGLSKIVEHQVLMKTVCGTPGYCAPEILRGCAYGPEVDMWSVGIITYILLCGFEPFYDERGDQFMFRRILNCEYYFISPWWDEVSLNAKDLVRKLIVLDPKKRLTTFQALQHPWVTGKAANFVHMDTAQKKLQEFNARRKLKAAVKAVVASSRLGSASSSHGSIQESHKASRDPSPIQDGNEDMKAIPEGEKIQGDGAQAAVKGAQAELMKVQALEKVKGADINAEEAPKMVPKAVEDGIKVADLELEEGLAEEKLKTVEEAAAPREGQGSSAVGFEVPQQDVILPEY

[3] = target: T2, Gamma-aminobutyric acid receptor subunit alpha-1 (Homo sapiens) (UniProt P14867); experiment: Selectivity interaction (Eurofins CEREP Diversity Profile (receptors and ion channels)) EUB0000279b GABRA1; settings: at 10 µM
T2 sequence (whole entry): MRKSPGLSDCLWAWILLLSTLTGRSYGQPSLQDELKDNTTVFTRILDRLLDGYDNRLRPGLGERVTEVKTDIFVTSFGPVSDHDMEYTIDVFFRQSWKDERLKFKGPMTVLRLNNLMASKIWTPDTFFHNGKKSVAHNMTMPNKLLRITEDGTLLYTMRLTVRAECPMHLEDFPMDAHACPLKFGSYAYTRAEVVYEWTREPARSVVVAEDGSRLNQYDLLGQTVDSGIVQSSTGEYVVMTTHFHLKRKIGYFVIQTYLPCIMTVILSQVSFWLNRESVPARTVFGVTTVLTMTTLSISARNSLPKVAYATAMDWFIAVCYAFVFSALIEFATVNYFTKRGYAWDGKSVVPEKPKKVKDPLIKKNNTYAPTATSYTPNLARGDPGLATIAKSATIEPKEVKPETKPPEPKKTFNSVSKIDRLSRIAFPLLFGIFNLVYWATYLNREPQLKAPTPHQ

[4] = system: Epidermal growth factor receptor (Homo sapiens), P00533 [UNDEFINED MUTATION]; experiment: Selectivity interaction (KinomeScan (DiscoverX)) EUB0001049a EGFR; settings: at 1 µM
[5] = target: Vascular endothelial growth factor receptor 2 (Homo sapiens, UniProt P35968); experiment: Selectivity interaction (Upstate Kinase Profiler service (Millipore)) EUB0000056c KDR; settings: at 1 µM
Sequence of Vascular endothelial growth factor receptor 2 (P35968 whole entry): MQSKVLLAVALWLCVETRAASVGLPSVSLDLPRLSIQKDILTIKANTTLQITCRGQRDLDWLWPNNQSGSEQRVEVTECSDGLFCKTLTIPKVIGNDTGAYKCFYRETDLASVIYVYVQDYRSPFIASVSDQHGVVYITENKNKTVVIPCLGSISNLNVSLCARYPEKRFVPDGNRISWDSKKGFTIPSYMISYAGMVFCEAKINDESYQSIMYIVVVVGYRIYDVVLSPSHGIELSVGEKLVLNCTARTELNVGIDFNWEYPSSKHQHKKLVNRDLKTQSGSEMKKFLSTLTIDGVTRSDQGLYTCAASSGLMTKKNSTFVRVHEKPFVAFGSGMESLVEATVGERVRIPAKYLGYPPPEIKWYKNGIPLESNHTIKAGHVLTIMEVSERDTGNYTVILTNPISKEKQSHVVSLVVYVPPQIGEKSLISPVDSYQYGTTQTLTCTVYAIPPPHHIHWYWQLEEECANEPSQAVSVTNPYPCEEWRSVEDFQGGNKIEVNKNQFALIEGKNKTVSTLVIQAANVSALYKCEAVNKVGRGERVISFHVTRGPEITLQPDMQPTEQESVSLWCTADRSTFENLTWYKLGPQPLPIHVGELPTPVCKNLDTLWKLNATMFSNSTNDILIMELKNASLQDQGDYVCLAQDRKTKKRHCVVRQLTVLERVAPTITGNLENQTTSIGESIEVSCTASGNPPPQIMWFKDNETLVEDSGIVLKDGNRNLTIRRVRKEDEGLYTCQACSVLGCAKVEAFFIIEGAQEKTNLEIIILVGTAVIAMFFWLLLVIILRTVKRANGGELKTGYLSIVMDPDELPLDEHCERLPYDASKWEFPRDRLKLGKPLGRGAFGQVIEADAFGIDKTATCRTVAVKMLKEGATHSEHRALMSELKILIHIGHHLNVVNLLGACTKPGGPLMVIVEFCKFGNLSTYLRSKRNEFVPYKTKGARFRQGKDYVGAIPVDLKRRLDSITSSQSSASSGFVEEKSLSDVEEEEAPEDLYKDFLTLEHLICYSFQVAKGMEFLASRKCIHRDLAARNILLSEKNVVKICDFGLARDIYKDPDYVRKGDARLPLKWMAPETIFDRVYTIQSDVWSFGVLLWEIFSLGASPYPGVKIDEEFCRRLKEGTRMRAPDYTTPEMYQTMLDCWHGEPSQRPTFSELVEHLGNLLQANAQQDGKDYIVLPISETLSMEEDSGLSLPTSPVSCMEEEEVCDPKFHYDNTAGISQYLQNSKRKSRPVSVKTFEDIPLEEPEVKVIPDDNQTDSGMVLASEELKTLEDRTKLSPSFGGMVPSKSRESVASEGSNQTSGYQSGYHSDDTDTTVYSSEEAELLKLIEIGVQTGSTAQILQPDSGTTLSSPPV

[6] = target: Mitogen-activated protein kinase kinase kinase 20 (Homo sapiens) (UniProt Q9NYL2); experiment: Selectivity interaction (ProQinase) EUB0000171b MAP3K20
Sequence of Mitogen-activated protein kinase kinase kinase 20 (Homo sapiens) (Q9NYL2 2-800 limits assumed): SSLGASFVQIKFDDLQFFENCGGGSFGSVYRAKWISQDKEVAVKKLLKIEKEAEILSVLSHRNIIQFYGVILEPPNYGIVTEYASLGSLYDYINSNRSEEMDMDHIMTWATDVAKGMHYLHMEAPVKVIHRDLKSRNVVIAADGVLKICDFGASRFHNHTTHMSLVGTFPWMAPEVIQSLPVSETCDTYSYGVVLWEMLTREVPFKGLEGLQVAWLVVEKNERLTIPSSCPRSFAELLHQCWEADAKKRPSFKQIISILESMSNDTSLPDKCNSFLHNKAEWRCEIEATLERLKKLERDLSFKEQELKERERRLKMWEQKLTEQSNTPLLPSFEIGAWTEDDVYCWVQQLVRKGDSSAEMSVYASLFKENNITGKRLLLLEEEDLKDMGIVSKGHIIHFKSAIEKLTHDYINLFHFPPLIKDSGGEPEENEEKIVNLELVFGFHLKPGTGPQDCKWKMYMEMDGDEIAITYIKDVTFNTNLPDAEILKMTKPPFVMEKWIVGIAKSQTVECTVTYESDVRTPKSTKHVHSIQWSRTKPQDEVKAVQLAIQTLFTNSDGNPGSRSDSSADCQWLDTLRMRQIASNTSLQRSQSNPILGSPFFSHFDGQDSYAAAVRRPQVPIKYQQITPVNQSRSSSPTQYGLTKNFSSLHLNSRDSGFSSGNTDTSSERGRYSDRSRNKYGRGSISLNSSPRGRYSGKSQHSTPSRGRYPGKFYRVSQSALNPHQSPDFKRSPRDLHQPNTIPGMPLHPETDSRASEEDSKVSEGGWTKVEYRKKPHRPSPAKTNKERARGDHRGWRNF

[7] = target: Protein kinase C theta type (Homo sapiens, UniProt Q04759); experiment: Selectivity interaction (KinomeScan (DiscoverX)) EUB0001619a PRKCQ; settings: at 1 µM
Sequence of Protein kinase C theta type (Q04759 whole entry, looked up): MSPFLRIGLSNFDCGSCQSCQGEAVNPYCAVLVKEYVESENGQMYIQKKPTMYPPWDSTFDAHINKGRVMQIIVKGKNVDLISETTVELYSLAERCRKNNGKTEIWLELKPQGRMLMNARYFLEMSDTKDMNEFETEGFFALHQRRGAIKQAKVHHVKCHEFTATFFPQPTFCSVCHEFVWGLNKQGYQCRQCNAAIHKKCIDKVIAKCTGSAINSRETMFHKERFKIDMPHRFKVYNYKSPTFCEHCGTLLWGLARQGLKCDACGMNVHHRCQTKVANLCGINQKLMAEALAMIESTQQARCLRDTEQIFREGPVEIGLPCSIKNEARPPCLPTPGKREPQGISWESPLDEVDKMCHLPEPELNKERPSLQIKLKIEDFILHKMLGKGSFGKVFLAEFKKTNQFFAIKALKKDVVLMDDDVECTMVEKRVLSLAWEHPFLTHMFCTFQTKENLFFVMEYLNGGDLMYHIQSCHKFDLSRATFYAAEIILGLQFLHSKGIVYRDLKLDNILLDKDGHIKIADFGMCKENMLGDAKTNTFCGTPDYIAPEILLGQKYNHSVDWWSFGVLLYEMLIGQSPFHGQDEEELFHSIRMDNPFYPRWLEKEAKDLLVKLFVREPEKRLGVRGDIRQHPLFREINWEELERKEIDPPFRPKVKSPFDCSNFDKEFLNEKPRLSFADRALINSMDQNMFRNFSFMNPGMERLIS

[8] = target: High affinity nerve growth factor receptor (Homo sapiens, UniProt P04629); experiment: Selectivity interaction (Kinase panel (literature)) EUB0001199aCl NTRK1; settings: at 1 µM
Sequence of High affinity nerve growth factor receptor (P04629 33-796 limits assumed): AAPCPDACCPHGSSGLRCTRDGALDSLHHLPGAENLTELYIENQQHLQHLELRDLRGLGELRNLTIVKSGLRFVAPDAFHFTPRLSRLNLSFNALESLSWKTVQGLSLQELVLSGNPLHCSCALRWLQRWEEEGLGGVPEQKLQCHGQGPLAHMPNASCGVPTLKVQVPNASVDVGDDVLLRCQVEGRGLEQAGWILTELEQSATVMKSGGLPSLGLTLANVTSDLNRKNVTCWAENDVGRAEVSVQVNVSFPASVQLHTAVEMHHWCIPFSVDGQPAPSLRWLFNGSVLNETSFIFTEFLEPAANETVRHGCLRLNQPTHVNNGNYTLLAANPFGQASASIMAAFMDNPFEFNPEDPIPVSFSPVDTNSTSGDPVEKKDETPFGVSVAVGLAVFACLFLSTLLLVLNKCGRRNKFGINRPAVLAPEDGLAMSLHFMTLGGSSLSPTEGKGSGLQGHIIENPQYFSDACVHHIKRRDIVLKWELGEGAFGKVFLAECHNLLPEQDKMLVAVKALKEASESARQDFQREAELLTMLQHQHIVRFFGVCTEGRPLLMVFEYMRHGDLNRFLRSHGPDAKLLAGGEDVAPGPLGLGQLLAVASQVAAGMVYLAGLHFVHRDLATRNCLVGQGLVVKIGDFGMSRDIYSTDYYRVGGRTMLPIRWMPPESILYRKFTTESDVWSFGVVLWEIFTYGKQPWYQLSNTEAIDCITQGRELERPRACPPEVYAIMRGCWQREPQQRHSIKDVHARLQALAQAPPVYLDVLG

[9] = target: T3, Serine/threonine-protein kinase STK11 (Homo sapiens) (UniProt Q15831); experiment: Selectivity interaction (KinomeScan (DiscoverX)) EUB0000607a STK11; settings: at 10 µM
T3 sequence (whole entry): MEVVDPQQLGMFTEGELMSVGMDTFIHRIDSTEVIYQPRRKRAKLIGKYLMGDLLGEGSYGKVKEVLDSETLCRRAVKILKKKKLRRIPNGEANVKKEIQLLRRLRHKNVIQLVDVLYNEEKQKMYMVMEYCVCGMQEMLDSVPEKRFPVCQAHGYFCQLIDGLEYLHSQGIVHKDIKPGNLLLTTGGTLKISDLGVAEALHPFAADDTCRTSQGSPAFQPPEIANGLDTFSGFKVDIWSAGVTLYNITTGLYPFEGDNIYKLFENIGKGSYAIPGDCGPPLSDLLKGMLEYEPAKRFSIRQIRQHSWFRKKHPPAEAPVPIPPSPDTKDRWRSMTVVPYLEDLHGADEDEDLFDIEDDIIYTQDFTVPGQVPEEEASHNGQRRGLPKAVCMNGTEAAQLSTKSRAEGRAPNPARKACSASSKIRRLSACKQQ

[10] = target: T4, Proto-oncogene tyrosine-protein kinase receptor Ret (Homo sapiens, UniProt P07949); experiment: (§1) Selectivity interaction (Kinase panel (Invitrogen)) EUB0000639a RET; settings: at 200 nM
T4 sequence (P07949 whole entry): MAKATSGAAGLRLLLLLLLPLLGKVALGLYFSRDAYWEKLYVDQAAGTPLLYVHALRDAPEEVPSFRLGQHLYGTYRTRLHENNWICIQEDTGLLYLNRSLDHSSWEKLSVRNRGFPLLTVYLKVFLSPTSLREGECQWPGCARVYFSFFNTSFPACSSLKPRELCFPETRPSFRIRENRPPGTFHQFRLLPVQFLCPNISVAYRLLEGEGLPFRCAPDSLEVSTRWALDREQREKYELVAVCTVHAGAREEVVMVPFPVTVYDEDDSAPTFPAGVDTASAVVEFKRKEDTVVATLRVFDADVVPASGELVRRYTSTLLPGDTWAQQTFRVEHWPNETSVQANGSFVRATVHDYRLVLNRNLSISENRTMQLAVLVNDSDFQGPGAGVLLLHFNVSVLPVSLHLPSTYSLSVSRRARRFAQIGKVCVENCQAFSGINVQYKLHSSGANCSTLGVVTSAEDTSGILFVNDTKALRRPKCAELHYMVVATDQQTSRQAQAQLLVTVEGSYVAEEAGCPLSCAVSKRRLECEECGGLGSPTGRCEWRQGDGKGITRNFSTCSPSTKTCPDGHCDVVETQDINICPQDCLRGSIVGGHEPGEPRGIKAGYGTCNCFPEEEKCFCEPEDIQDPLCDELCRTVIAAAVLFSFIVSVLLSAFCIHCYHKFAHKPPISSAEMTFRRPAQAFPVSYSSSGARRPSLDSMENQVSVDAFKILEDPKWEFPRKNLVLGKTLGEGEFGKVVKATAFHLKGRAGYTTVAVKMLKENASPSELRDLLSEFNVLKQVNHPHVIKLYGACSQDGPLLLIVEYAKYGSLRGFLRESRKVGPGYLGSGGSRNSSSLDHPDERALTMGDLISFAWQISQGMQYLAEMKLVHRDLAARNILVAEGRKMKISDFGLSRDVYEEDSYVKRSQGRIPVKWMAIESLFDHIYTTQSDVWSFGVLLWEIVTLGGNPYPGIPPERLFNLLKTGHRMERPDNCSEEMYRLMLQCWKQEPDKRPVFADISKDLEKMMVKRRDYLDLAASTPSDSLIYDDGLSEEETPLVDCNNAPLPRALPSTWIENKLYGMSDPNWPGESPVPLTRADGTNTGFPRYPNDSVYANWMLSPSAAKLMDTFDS

[11] = target: T4, Proto-oncogene tyrosine-protein kinase receptor Ret; experiment: as §1; settings: at 200 nM; remark: listed apart in the source
[12] = target: T5, Serine/threonine-protein kinase D1 (Homo sapiens) (UniProt Q15139); experiment: Selectivity interaction (Kinase panel (Invitrogen)) EUB0000639a PRKD1; settings: at 200 nM
T5 sequence (whole entry): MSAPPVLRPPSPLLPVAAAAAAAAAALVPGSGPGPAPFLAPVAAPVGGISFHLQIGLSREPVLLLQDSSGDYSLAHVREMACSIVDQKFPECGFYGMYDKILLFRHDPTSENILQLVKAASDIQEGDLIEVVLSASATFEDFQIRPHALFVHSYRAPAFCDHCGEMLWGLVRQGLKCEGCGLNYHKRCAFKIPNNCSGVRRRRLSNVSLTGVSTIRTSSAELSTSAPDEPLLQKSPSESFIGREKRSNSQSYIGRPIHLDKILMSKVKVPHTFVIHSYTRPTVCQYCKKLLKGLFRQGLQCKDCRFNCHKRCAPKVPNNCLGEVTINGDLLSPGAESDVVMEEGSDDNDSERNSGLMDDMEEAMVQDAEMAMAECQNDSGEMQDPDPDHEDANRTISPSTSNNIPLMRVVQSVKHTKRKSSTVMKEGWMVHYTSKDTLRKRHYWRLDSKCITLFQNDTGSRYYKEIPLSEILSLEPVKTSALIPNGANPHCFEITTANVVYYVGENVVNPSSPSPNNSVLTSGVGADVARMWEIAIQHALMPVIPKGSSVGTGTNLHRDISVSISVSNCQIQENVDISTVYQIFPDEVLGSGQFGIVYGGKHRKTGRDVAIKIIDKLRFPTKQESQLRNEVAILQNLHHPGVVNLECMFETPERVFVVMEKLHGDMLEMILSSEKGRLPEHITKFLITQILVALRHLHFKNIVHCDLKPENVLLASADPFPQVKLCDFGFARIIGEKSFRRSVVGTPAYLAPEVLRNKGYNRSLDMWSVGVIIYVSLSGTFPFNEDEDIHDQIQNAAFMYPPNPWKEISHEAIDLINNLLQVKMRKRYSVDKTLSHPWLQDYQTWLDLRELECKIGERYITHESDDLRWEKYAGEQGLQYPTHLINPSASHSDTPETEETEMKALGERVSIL

## COCC(=O)NC/C=C/c1ccc2ncnc(Nc3ccc(Oc4ccc(C)nc4)c(C)c3)c2c1 [CP-724714]
[1]
  % of control: 95%
[2]
  % of control: 86%

## CC(=O)c1cc(-c2ccccc2OCC2CC2)c2ncccn12
[3]
  % of control: 103%

## COc1cc(Nc2nc(C)cc(-c3cnn4nc(OC)ccc34)n2)cc(C(F)(F)F)c1
[4]
  % of control: 83%

## Cc1ccc(-c2ccc3c(ccc4sc5c(c43)NC[C@@H](C)NC5=O)n2)cn1
[5]
  % of inhibition: 21%

## C=CC(=O)Nc1cccc(C(=O)Nc2ccc(Nc3cc(-c4[nH]c(SC)nc4C)ccn3)cc2)c1
[6]; at 1 µM
  % of control: 48%
[6]; at 5 µM
  % of control: 15%

## N#Cc1cccc(-c2c[nH]c3ncnc(N4CCOCC4)c23)c1
[7]
  % of control: 77%

## CN1Cc2nccc(-c3cn(C)nc3-c3ccc(F)cc3)c2C1=O
[8]
  % of inhibition: 15%

## CNC(=O)Nc1ccc(-c2nc(N3CC4CCC(C3)O4)c3cnn(C4CCC5(CC4)OCCO5)c3n2)cc1
[9]
  % of control: 80%

## CC[C@@H]1[C@H](F)C(=O)N[C@@H]1COc1nccc2cc(C(N)=O)c(OC)cc12 [ZIMLOVISERTIB]
[10]
  % of inhibition: 58.9%
[11]
  % of inhibition: 58.6%
[12]
  % of inhibition: 5.76%
